Tests used:
STAT6 = molecular target: T1, STAT6 (Homo sapiens, UniProt P42226); test: Stat6 Degrader Assay (HiBiT based, HeLa LgBiT clone 4.14); format: cell-based; conditions: HeLa LgBiT clone 4.14 HiBiT-STAT6, 4-24 h incubation; values given for compounds with >80% Emax; geometric mean; read-out: STAT6 degradation DC50
T1 construct: These cells express endogenous STAT6; host or cells: HeLa LgBiT clone 4.14
T1 sequence (P42226 1-847): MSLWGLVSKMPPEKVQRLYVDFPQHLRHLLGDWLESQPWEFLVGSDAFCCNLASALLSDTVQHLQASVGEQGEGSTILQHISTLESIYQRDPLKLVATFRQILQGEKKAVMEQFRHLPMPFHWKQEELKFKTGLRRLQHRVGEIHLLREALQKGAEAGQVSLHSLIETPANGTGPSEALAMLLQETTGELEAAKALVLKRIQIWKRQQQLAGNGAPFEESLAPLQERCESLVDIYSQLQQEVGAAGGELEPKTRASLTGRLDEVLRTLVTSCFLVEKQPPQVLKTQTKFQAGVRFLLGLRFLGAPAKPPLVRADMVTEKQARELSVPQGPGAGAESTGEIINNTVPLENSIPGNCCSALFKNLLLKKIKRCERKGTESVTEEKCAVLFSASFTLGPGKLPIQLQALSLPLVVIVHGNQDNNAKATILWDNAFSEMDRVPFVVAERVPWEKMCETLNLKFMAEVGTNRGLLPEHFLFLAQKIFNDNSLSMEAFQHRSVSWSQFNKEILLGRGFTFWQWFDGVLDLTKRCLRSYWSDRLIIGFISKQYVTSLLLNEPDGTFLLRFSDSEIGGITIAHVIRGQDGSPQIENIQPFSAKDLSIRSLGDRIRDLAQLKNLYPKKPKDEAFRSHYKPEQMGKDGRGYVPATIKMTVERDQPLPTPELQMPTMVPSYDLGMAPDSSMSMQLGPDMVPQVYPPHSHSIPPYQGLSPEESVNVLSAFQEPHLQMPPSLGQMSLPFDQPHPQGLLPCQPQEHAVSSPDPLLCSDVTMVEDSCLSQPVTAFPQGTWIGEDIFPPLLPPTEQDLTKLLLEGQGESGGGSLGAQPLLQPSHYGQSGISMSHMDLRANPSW
Summary of the method: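 HeLa LgBiT clone 4.14 cells with CRISPR HiBiT-tagged endogenous STAT6, 5000 cells/well, compound dosed then incubated 4-24 h at 37° C, 5% CO2. Nano-Glo substrate added, 0.5 h, luminescence read as non-degraded STAT6. Terfenadine 50 μM (cell kill) defines 100% degradation.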

[1] = test system: Eotaxin-3 release in human whole blood stimulated with IL-4; test: Human Whole Blood Eotaxin-3 Assay (IL-4 stimulated eotaxin-3 release); format: cell-based; conditions: IL-4 stimulation, 48 h, values given for compounds with >80% Emax, geometric mean
Summary of the method: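 Lithium-heparin human whole blood preincubated 2 h at 37° C with 4-fold serially diluted compounds (0.5% DMSO), then stimulated with recombinant human IL-4 ([…]) for 48 h. Eotaxin-3 (CCL26) in supernatant quantified by MSD immunoassay.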

Work on `CNc1ccn(-c2ccnc3c2cc([C@H](C)N2CC=C(c4c(C)cc(C(=O)N(C)c5ccc(C6CCN(Cc7ccc8c(c7)C(C)(C)C(=O)N8C7CCC(=O)NC7=O)CC6)cc5)cc4F)CC2)n3C)c(=O)c1` (stereo partly drawn) [Example 3u232, N-(4-(1-((1-(2,6-dioxopiperidin-3-yl)-3,3-dimethyl-2-oxoindolin-5-yl)methyl)-piperidin-4-yl)phenyl)-3-fluoro-N,5-dimethyl-4-(1-((S)-1-(1-methyl-4-(4-(methylamino)-2-oxopyridin-1 (2H)-yl)-1H-pyrrolo[2,3-b]pyridin-2-yl)ethyl)-1,2,3,6-tetrahydropyridin-4-yl)benzamide] yielded a DC50 (STAT6) of 0.1 nM and an EC50 [1] of 0.8 nM.
`CNc1ccn(-c2ccnc3c2cc(CN2CC=C(c4c(C)cc(C(=O)N(C)c5ccc(C6CCN(Cc7ccc8c(c7)n(C)c(=O)n8C7CCC(=O)NC7=O)CC6)cc5)cc4F)CC2)n3C)c(=O)c1` (stereo not shown) [Example 3u247, N-(4-(1-((1-(2,6-dioxopiperidin-3-yl)-3-methyl-2-oxo-2,3-dihydro-1H-benzo[d]-imidazol-5-yl)methyl)piperidin-4-yl)phenyl)-3-fluoro-N,5-dimethyl-4-(1-((1-methyl-4-(4-(methyl-amino)-2-oxopyridin-1 (2H)-yl)-1H-pyrrolo[2,3-b]pyridin-2-yl)methyl)-1,2,3,6-tetrahydropyridin-4-yl)benzamide] showed a DC50 (STAT6) of 0.04 nM and an EC50 [1] of 0.3 nM.
For `CNc1ccn(-c2ccnc3c2cc([C@H](C)N2CCC(c4c(C)cc(C(=O)N5CCC(CN6CCN(Cc7ccc8c(c7)n(C7CC7)c(=O)n8[C@H]7CCC(=O)NC7=O)C[C@@H]6C)CC5)cc4F)CC2)n3C)c(=O)c1` (single isomer, unassigned) [Example 3u198], the DC50 (STAT6) was 1.2 nM and the EC50 [1] was 1.6 nM.
Compound `CNc1ccn(-c2ccnc3c2cc([C@H](C)N2CC=C(c4c(C)cc(C(=O)N5CCC(CN6CCN(c7ccc8c(c7)n(C)c(=O)n8C7CCC(=O)NC7=O)CC6)CC5)cc4F)CC2)n3C)c(=O)c1` (stereo partly drawn) [Example 3u299, 3-(5-(4-((1-(3-fluoro-5-methyl-4-(1-((S)-1-(1-methyl-4-(4-(methylamino)-2-oxopyridin-1 (2H)-yl)-1H-pyrrolo[2,3-b]pyridin-2-yl)ethyl)-1,2,3,6-tetrahydropyridin-4-yl)benzoyl)piperidin-4-yl)methyl)piperazin-1-yl)-3-methyl-2-oxo-2,3-dihydro-1H-benzo[d]imidazol-1-yl)piperidine-2,6-dione] has a DC50 (STAT6) of 0.9 nM and an EC50 [1] of 0.5 nM.
Compound `CNc1ccn(-c2ccnc3c2cc([C@H](C)N2CC=C(c4c(F)cc(C(=O)N5CCC(CN6CCN(Cc7ccc8c(c7)C(C)(C)C(=O)N8C7CCC(=O)NC7=O)C[C@@H]6C)CC5)cc4F)CC2)n3C)c(=O)c1` (stereo partly drawn) [Example 3u201, 3-(5-(((S)-4-((1-(3,5-difluoro-4-(1-((S)-1-(1-methyl-4-(4-(methylamino)-2-oxopyridin-1 (2H)-yl)-1H-pyrrolo[2,3-b]pyridin-2-yl)ethyl)-1,2,3,6-tetrahydropyridin-4-yl)benzoyl)piperidin-4-yl)-methyl)-3-methylpiperazin-1-yl)methyl)-3,3-dimethyl-2-oxoindolin-1-yl)piperidine-2,6-dione] has a DC50 (STAT6) of 1.3 nM and an EC50 [1] of 3.8 nM.
Work on `CNc1ccn(-c2ccnc3c2cc(CN2CCC(c4c(F)cc(C(=O)N5CCC(CN6CCN(Cc7ccc8c(c7)C(C)(C)C(=O)N8[C@H]7CCC(=O)NC7=O)C[C@@H]6C)CC5)cc4F)CC2)n3C)c(=O)c1` (single isomer, unassigned) [Example 3u205] yielded a DC50 (STAT6) of 3 nM and an EC50 [1] of 5.9 nM.
`CNc1ccn(-c2ccnc3c2cc(CN2CC=C(c4c(F)cc(C(=O)N5CCC(CN6CCN(Cc7ccc8c(c7)n(C7CC7)c(=O)n8[C@@H]7CCC(=O)NC7=O)C[C@@H]6C)CC5)cc4F)CC2)n3C)c(=O)c1` (single isomer, unassigned) [Example 3u73] gave a DC50 (STAT6) of 6.8 nM and an EC50 [1] of 2.4 nM.
For `CNc1ccn(-c2ccnc3c2cc(CN2CC=C(c4c(F)cc(C(=O)N5CCC(CN6CCN(Cc7ccc8c(c7)C(C)(C)C(=O)N8C7CCC(=O)NC7=O)C[C@@H]6C)CC5)cc4F)CC2)n3C)c(=O)c1` (stereo partly drawn) [Example 3u45, 3-(5-(((S)-4-((1-(3,5-difluoro-4-(1-((1-methyl-4-(4-(methylamino)-2-oxopyridin-1 (2H)-yl)-1H-pyrrolo[2,3-b]pyridin-2-yl)methyl)-1,2,3,6-tetrahydropyridin-4-yl)benzoyl)piperidin-4-yl)methyl)-3-methylpiperazin-1-yl)methyl)-3,3-dimethyl-2-oxoindolin-1-yl)piperidine-2,6-dione], the DC50 (STAT6) was 3.9 nM and the EC50 [1] was 4.5 nM.
Work on `CNc1ccn(-c2ccnc3c2cc([C@H](C)N2CC=C(c4c(C)cc(C(=O)N5CCC(CN6CCN(Cc7ccc8c(c7)C(C)(C)C(=O)N8C7CCC(=O)NC7=O)C[C@@H]6C)CC5)cc4F)CC2)n3C)c(=O)c1` (stereo partly drawn) [Example 3u175, 3-(5-(((S)-4-((1-(3-fluoro-5-methyl-4-(1-((S)-1-(1-methyl-4-(4-(methylamino)-2-oxopyridin-1 (2H)-yl)-1H-pyrrolo[2,3-b]pyridin-2-yl)ethyl)-1,2,3,6-tetrahydropyridin-4-yl)benzoyl)-piperidin-4-yl)methyl)-3-methylpiperazin-1-yl)methyl)-3,3-dimethyl-2-oxoindolin-1-yl)piperidine-2,6-dione] yielded a DC50 (STAT6) of 1.3 nM and an EC50 [1] of 3.8 nM.
`CNc1cc(=O)n(-c2ccnc3c2cc([C@H](C)N2CC=C(c4c(C)cc(C(=O)N5CCC(CN6CCN(Cc7ccc8c(c7)C7(CC7)C(=O)N8[C@@H]7CCC(=O)NC7=O)C[C@@H]6C)CC5)cc4F)CC2)n3C)cc1F` (single isomer, unassigned) [Example 3u100] was tested, and the DC50 (STAT6) was 1.7 nM and the EC50 [1] was 3.1 nM.
In the case of `CNc1ccn(-c2ccnc3c2cc(CN2CCC(c4c(F)cc(C(=O)N5CCC(CN6CCN(Cc7ccc8c(c7)n(C7CC7)c(=O)n8[C@H]7CCC(=O)NC7=O)C[C@@H]6C)CC5)cc4F)CC2)n3C)c(=O)c1` (single isomer, unassigned) [Example 3u217], the DC50 (STAT6) is reported as 1.8 nM and the EC50 [1] is reported as 0.6 nM.
For `CNc1ccn(-c2ccnc3c2cc([C@H](C)N2CC=C(c4c(C)cc(C(=O)N(C)c5ccc(C6CCN(Cc7ccc8c(c7)n(C)c(=O)n8[C@H]7CCC(=O)NC7=O)CC6)cc5)cc4F)CC2)n3C)c(=O)c1` (single isomer, unassigned) [Example 3u226], the DC50 (STAT6) was 0.05 nM and the EC50 [1] was 0.2 nM.
In the case of `Cc1cc(C(=O)N2CCC(CN3CCN(Cc4ccc5c(c4)n(C)c(=O)n5C4CCC(=O)NC4=O)CC3)CC2)cc(F)c1C1=CCN([C@@H](C)c2cc3c(-n4ccc5c(c4=O)CCN5)ccnc3n2C)CC1` (stereo partly drawn) [Example 3u22, 3-(5-((4-((1-(3-fluoro-5-methyl-4-(1-((S)-1-(1-methyl-4-(4-oxo-1,2,3,4-tetrahydro-5H-pyrrolo[3,2-c]pyridin-5-yl)-1H-pyrrolo[2,3-b]pyridin-2-yl)ethyl)-1,2,3,6-tetrahydropyridin-4-yl)-benzoyl)piperidin-4-yl)methyl)piperazin-1-yl)methyl)-3-methyl-2-oxo-2,3-dihydro-1H-benzo[d]-imidazol-1-yl)piperidine-2,6-dione], the DC50 (STAT6) is reported as 0.7 nM and the EC50 [1] is reported as 0.8 nM.
In the case of `CNc1ccn(-c2ccnc3c2cc(CN2CC=C(c4c(C)cc(C(=O)N(C)c5ccc(C6CCN(Cc7ccc8c(c7)C(C)(C)C(=O)N8[C@H]7CCC(=O)NC7=O)CC6)cc5)cc4F)CC2)n3C)c(=O)c1` (single isomer, unassigned) [Example 3u229], the DC50 (STAT6) is reported as 0.3 nM and the EC50 [1] is reported as 1.6 nM.

— patent US20250320206A1, “STAT6 DEGRADERS” (Gilead Sciences, Inc., priority 2024, published 2025)
